Assay results taken from ChEMBL document CHEMBL1201862, “PubChem BioAssay data set” (2004).
Blank lines part the entries; values can stand above or below the molecule they belong to. Active and inactive are the calls of the source.

What was measured:
[1] = ZM109 Env clade C HIV-1 fusion inhibitors, dose response, HeLa effector, CEM target cells, luciferase, cherry-pick (AID 652058); assay type: functional, cell-based
[2] = target: T1, Fatty acid synthase (Homo sapiens, UniProt P49327); experiment: FAS thioesterase domain inhibitors, dose response, biochemical, kinetic fluorescence intensity (AID 624326); assay type: functional;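 further: rate of fluorescence rise from hydrolysis of a fluorogenic O-methyl fluorescein ester substrate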
[3] = target: T1, Fatty acid synthase; experiment: FAS thioesterase domain inhibitors, dose response, biochemical, endpoint fluorescence intensity, uHTS hits (AID 624327); assay type: functional;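 further: fluorescence from hydrolysis of an O-methyl fluorescein acyl ester substrate by the enzyme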
[4] = inhibitors of HIV Env-driven cell fusion, dose response, cherry-pick (AID 652057); assay type: functional, cell-based
[5] = inhibitors of clade B AD8 Env fusion, dose response, cell-based, cherry-pick (AID 652062); assay type: functional;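 further: luciferase signal from cell-cell fusion driven by HIV-1 clade B AD8 Env; potency is for inhibitors of fusion seen as a drop in luminescence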
[6] = HEp-2 cell cytotoxicity, dose response, cytotoxicity control for RSV inhibitor project, HTS (AID 2410); assay type: functional; conditions: human respiratory syncytial virus
[7] = target: T2, Microphthalmia-associated transcription factor (Homo sapiens, UniProt O75030); experiment: TRPM1 promoter luciferase signal decrease, dose response, MITF inhibitor project, cell-based, SK-MEL-5, cherry-picked, set 3 (AID 493073); assay type: functional
T2 sequence (O75030 whole entry): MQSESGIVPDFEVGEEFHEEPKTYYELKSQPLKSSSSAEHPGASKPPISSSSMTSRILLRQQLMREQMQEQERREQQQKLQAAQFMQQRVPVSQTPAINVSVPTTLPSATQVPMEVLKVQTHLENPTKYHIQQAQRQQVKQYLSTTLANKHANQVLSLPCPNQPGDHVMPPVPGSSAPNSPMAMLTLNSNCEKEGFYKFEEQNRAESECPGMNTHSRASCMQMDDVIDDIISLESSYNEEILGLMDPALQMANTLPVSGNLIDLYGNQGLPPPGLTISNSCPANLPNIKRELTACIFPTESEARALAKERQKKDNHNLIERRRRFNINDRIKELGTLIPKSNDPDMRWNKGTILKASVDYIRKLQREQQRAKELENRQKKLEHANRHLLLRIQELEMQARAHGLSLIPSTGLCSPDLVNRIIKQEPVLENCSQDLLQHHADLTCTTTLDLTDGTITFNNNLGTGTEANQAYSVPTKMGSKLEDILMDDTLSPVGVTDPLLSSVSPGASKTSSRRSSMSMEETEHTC

[8] = target: Glucose-6-phosphate 1-dehydrogenase (Homo sapiens, UniProt P11413); experiment: human G6PD enzyme inhibitors, dose response, selectivity assay for P. falciparum G6PD inhibitor project, biochemical, fluorescence (AID 504792); assay type: functional
[9] = target: DNA dC->dU-editing enzyme APOBEC-3G (Homo sapiens, UniProt Q9HC16); experiment: Dose Response confirmation of small molecule APOBEC3G DNA Deaminase Inhibitors via a fluorescence-based single-stranded DNA deaminase assay. [Related pubchem assays (depositor defined):AID493012, AID493028]; assay type: functional
[10] = P. falciparum Dd2 growth inhibitors, dose response, SYBR Green, cherry-picked samples (AID 1159567); assay type: functional, cell-based
[11] = HepG2 cell cytotoxicity, dose response, cytotoxicity control, cherry-picked samples (AID 1159577); assay type: functional, cell-based

T1 sequence (P49327 whole entry, the tested form may be a part): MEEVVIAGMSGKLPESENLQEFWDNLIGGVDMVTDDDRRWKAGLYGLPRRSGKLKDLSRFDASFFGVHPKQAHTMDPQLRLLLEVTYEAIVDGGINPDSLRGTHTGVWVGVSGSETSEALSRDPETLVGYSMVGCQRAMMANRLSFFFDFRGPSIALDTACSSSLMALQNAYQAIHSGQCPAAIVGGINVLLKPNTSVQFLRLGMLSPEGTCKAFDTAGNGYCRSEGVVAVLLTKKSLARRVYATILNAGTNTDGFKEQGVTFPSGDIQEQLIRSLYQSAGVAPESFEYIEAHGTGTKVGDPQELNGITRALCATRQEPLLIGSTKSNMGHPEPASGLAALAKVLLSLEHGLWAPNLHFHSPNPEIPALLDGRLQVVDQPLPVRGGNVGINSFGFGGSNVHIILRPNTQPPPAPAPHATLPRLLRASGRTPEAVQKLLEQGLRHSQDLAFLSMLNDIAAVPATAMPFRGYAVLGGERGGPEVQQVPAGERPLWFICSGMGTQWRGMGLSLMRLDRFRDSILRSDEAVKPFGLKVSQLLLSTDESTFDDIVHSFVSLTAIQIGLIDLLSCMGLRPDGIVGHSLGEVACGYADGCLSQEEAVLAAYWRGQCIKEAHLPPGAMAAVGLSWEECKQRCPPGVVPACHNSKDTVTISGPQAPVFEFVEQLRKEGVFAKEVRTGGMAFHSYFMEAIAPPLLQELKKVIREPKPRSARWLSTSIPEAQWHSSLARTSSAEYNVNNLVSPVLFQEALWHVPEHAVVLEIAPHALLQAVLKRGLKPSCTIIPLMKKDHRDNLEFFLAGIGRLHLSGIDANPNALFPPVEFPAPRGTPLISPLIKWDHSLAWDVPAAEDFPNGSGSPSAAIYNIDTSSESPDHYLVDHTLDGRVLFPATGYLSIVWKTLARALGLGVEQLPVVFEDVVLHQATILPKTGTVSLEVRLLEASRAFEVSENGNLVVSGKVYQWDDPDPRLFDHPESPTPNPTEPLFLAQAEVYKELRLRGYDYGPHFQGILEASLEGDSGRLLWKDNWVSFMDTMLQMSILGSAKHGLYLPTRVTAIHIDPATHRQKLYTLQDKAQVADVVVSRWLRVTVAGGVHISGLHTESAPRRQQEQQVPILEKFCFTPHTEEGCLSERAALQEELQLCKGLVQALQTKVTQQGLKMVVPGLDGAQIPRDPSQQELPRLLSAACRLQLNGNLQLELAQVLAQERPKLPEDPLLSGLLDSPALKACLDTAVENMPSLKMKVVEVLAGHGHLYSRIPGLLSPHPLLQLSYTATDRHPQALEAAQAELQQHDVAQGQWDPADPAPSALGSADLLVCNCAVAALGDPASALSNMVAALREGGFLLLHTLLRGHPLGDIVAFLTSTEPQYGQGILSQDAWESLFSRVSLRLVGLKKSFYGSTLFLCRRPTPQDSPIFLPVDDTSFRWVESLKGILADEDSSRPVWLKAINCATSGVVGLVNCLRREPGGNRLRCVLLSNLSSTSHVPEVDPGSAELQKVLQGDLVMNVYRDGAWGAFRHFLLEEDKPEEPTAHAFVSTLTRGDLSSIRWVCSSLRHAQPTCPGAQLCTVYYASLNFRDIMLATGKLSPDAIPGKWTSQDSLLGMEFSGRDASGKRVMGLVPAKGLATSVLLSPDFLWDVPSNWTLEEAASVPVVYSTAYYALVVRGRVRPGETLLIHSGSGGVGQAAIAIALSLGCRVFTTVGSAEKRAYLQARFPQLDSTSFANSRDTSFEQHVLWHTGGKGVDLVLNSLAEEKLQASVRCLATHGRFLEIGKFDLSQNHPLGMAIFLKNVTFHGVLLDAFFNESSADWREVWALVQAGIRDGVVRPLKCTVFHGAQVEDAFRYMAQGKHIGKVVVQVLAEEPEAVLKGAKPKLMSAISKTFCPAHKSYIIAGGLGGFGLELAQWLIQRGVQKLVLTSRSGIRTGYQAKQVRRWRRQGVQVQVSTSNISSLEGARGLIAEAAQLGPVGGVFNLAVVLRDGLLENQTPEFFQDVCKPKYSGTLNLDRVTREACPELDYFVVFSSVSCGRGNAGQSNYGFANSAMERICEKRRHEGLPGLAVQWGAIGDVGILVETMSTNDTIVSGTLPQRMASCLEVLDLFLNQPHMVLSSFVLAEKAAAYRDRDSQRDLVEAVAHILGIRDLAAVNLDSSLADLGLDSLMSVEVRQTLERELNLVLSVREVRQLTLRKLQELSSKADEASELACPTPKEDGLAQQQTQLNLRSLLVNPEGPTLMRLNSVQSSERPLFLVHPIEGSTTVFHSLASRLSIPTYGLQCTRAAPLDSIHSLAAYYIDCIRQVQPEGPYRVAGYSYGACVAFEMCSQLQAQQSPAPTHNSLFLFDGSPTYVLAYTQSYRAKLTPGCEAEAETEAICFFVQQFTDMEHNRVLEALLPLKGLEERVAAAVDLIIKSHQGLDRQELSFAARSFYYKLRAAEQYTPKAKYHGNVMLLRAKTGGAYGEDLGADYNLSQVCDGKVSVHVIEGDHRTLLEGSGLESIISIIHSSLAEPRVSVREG
Sequence of Glucose-6-phosphate 1-dehydrogenase (P11413 whole entry): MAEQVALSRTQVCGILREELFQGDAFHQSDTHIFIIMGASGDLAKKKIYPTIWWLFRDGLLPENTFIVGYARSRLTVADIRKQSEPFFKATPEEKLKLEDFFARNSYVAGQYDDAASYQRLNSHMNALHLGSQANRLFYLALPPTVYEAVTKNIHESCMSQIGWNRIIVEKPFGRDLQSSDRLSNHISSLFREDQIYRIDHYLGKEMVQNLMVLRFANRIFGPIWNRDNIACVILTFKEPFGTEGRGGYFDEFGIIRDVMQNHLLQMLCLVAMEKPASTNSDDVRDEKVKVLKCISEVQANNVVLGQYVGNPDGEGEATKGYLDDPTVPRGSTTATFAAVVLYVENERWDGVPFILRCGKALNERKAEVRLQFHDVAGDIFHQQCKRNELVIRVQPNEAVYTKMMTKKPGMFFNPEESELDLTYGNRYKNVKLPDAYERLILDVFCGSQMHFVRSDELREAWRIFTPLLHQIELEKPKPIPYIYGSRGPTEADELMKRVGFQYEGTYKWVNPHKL
Sequence of DNA dC->dU-editing enzyme APOBEC-3G (Q9HC16 whole entry): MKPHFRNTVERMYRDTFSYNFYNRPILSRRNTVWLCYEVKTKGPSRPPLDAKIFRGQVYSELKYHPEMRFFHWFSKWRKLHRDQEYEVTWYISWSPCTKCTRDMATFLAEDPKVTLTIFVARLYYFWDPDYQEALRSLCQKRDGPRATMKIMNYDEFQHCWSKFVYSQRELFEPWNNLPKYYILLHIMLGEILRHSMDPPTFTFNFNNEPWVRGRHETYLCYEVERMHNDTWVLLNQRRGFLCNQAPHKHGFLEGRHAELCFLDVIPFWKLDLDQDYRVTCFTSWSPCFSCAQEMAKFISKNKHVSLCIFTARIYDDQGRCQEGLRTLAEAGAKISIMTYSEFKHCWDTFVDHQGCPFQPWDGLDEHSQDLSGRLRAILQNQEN

Structure (SMILES): C[C@@H]1CN([C@@H](C)CO)S(=O)(=O)c2ccc(-c3ccccc3)cc2O[C@H]1CN(C)S(C)(=O)=O
AC50 [1]: 44 µM (active)

IC50 [2]: 17.2 µM (active) | IC50 [3]: 16 µM (active)
Structure (SMILES): O=C(COc1ccc(S(=O)(=O)N2CCCCC2)cc1)Nc1ccccc1F

Structure (SMILES): COc1cccc(S(=O)(=O)N2CCC3(CC2)CN(C(=O)Nc2cccc(F)c2)[C@@H](CO)c2[nH]c4cc(OC)ccc4c23)c1
AC50 [4]: 6.21 µM (active) | AC50 [1]: 6.68 µM (active) | AC50 [5]: 8.03 µM (active)

AC50 [7]: 20.7 µM (active)
Structure (SMILES): C=CCSC(=S)NC1CCS(=O)(=O)C1 (stereo not given)
CC50 [6]: 24.6 µM (active)

IC50 [2]: 12.3 µM (active) | IC50 [3]: 11.6 µM (active)
Structure (SMILES): Cc1ccc(-c2c(C(=O)N(C)Cc3ccccc3)oc(=O)c3ccccc23)cc1

Structure (SMILES): COC(=O)[C@H](C)NC(=O)c1cc2c3ccccc3nc-2c[nH]1
IC50 [8]: > 80 µM (inactive) | IC50 [9]: 25.6 µM (active)

IC50 [8]: > 80 µM (inactive)
Structure (SMILES): CC(C)c1nnc(NC(=O)c2cc3ccccc3o2)s1

Structure (SMILES): C[C@@H]1CN([C@H](C)CO)C(=O)c2c(c3ccccc3n2C)-c2ccccc2CO[C@@H]1CN(C)Cc1cccc(O)c1
AC50 [10]: 4.04 µM (active) | AC50 [11]: 17.2 µM (active)
